Experimental data reported in ChEMBL document CHEMBL1146577, “Sulfemodin 8-O-beta-D-glucoside, a new sulfated anthraquinone glycoside, and antioxidant phenolic compounds from Rheum emodi” (J Nat Prod, 2003).
Values after ≈ are worked out from the molar mass of the structure shown.

Each compound was assayed on Radical scavenging activity (assay: Antioxidant activity assessed as DPPH radical scavenging activity).
Type: functional

Compound | IC50
COc1cc(O[C@@H]2O[C@H](CO)[C@@H](O)[C@H](O)[C@H]2O)c2c(O)c(C(C)=O)c(C)cc2c1 | 18.5 µg/mL (≈ 45.3 µM)
COc1cc(O)c2c(c1)C(=O)c1cc(C)cc(O[C@@H]3O[C@H](CO)[C@@H](O)[C@H](O)[C@H]3O)c1C2=O | > 100 µg/mL
Cc1cc(O[C@@H]2O[C@H](CO)[C@@H](O)[C@H](O)[C@H]2O)c2c(c1)C(=O)c1cc(O)cc(O)c1C2=O | > 100 µg/mL
Oc1cc(O)c2c(c1)O[C@H](c1ccc(O)c(O)c1)[C@H](O)C2 [(-)-EPICATECHIN] | 1.7 µg/mL (≈ 5.86 µM)
O=C1O[C@H]([C@@H](O)CO)C(O)=C1O [ASCORBIC ACID] | 3.9 µg/mL (≈ 22.1 µM)
COc1cc(O)cc2c1C(=O)C(O)(Cc1ccc(O)cc1)O2 (stereo unspecified) [CARPUSIN] | 4.7 µg/mL (≈ 15.5 µM)
Cc1cc(O)c2c(c1)C(=O)c1cccc(O)c1C2=O [CHRYSOPHANOL] | > 100 µg/mL
Cc1cc(O)c2c(c1)C(=O)c1cc(O)cc(O)c1C2=O [EMODIN] | > 100 µg/mL
O=C1c2c(O)cc(O)cc2OC1(O)Cc1ccc(O)cc1 (stereo unspecified) [MAESOPSIN] | 5.3 µg/mL (≈ 18.4 µM)
COc1cc(O)c2c(c1)C(=O)c1cc(C)cc(O)c1C2=O [PHYSCION] | > 100 µg/mL
Cc1cc(O)c2c(c1)C(=O)c1cccc(O[C@@H]3O[C@H](CO)[C@@H](O)[C@H](O)[C@H]3O)c1C2=O [PULMATIN] | > 100 µg/mL
